In PMC6120666 (The EMBO Journal, 2018):

Columns and labels:
[1] = test system: U2OS/NOD2, THP1, RAW264.7 and HEKBlue cells; experiment: CellTiter-Glo viability assay; type: cell-based; conditions: U2OS/NOD2, THP1, RAW264.7, HEKBlue; 24 h; up to 1 µM
Procedure: Cell viability was determined using CellTiter‐Glo assay (Promega). […] Kinase activities were determined using ADPGlo assay (Promega). • Structure of the active conformation of RIPK2 kinase domain in complex with AMP‐PNP (PDB ID: 5AR3). Figure depicts locations of the adenine and deep pockets. […] Key residues discussed in the text are shown as sticks (Lys/Glu Glu‐in bond—bottom left, catalytic Asp residues (Asp146/Asp164)—bottom right, R‐spine—right). P‐loop of CSLP18 structure is shown in yellow. Structured segment of activation segment (AS) observed in active conformation structures is shown in red. • Structure of RIPK2 kinase domain (gray ribbons) in complex with CSLP18 (orange) (PDB ID 6FU5). Sticks are shown for residues in the vicinity of the cavity surrounding the key inhibitor position R1. A 2Fo‐Fc electron density map contoured at 1 sigma is shown for the inhibitor and the residues lining the key region around inhibitor R^1 position. • Molecular docking model of RIPK2 kinase domain in complex with CSLP37 (yellow) based on RIPK2/CSLP18 structure (Fig 3D). […]
GST-BIR2-XIAP as indicated. Intensity quantification of SPOTs was performed using ImageJ software (Schneider et al., 2012). […]
for cell death) or vehicle for 24h. Viability was determined using the CellTiter-Glo® luminescent cell […]

[2] = test system: RAW264.7 cells (TLR4 activation by LPS); experiment: TNF ELISA, LPS-stimulated RAW264.7 cells; type: cell-based, mouse; conditions: LPS 10 ng/ml; inhibitor even at 1 μM
Procedure: Figure EV3 Activity of select CSLP inhibitors in MDP and LPS‐stimulated RAW264.7 macrophages • A, B ELISA measurement of TNF release from RAW264.7 cells treated with MDP (10 μg/ml, 24 h) (A) or LPS (10 ng/ml) (B) and CSLP compounds as indicated. Values are expressed relative to the TNF release in cells treated with MDP without inhibitor (A) or as ng/ml TNF (B). Data information: Data represent the mean ± SEM of 2–3 independent experiments. Statistical significance in (B) is determined in relation to […] samples without inhibitor *P < 0.05, **P < 0.01, n.s., not significant. Two‐tailed unpaired Student's t‐test was used to determine statistical significance. […]
For HEKBlue assay, cells were seeded into clear 96 well plates at 7.5x10^3 cells/well and allowed to attach for 48 h. […] After 8-9 h, absorbance at 620 nm was measured using Victor3V plate reader (Perkin Elmer, Waltham, MA). Values of media-only wells were subtracted and %inhibition for each compound concentration relative to the DMSO/L18-MDP-treated controls were calculated.
Inhibition values + StDev were fitted by non-linear regression using Prism software (GraphPad Software, La Jolla, CA) to calculate IC50 values. […] After induction, 20 μl of media was mixed with 180 μl of QUANTI-Blue reagent (InvivoGen) and incubated at 37 °C for 3-4 h, followed by absorbance measurement at 620 nm. […]

THP1Blue cells, NOD1 = experiment: THP1Blue NF-κB-SEAP reporter assay, TriDAP (NOD1); type: cell-based; conditions: Homo sapiens; TriDAP 10 μg/ml; read-out: THP1-Blue NF-κB Inhibition IC50 (TriDAP)

CCCS(=O)(=O)Nc1cc(-c2cc(-c3ccc(N4CCNCC4)cc3)cnc2N)cc(F)c1OC [CSLP37]
toxicity in the cell lines used [1]: did not have measurable toxicity
TNF release following LPS [2]: neither CSLP37 nor CSLP43 attenuated
IC50 (THP1Blue cells, NOD1): 20.8 ± 1.2 nM

CCCS(=O)(=O)Nc1cc(-c2cc(-c3ccc(N4CCNCC4)cc3)cnc2N)cc(OC)c1OC [CSLP43]
toxicity in the cell lines used [1]: did not have measurable toxicity
TNF release following LPS [2]: neither CSLP37 nor CSLP43 attenuated
IC50 (THP1Blue cells, NOD1): 1.43 ± 0.1 nM
